Laboratory results as given in paper PMC5355811 (Nature Communications, 2017).
Like-named read-outs stand apart in the source and are kept apart here.

Key:
[1] = test system: Ba/F3 cells expressing EGFR-L858R; experiment: CellTiter-Glo cell viability assay, Ba/F3 EGFR-L858R; format: cell-based; conditions: Mus musculus, BaF3, 72 h
Method: (§1) Three-day cell viability assays were carried out by plating 2,000, 1,500 and 2,000 cells per well of Ba/F3, PC9 or MGH121, respectively, into black transparent-bottom 96-well plates. On the same day for Ba/F3 cells and the following day for PC9 and MGH121 cells, the cells were treated with each TKI across a 10-dose range from 0.3 nmol l^−1 to 10 μmol l^−1. After 72 h of drug treatment, cell viability was measured using the CellTiter-Glo assay (Promega).

[2] = test system: Ba/F3 cells expressing EGFR-del19; experiment: CellTiter-Glo cell viability assay, Ba/F3 EGFR-del19; format: cell-based; conditions: Mus musculus
Method: as §1

[3] = test system: Ba/F3 cells expressing EGFR-T790M/L858R; experiment: CellTiter-Glo cell viability assay, Ba/F3 EGFR-T790M/L858R; format: cell-based; conditions: Mus musculus, BaF3, 72 h
Method: as §1

[4] = test system: PC9 triple-mutant cells (C797S/T790M/del19); experiment: CellTiter-Glo cell viability assay, PC9 triple mutant; format: cell-based; conditions: 72 h, read-out: IC50, PC9 triple
Method: as §1

PC9 parent cells (del19) = experiment: CellTiter-Glo cell viability assay, PC9 parent; format: cell-based; conditions: 72 h, read-out: IC50, PC9 parent
Method: as §1

[5] = test system: Ba/F3 cells expressing EGFR-C797S/T790M/del19; experiment: CellTiter-Glo cell viability assay, Ba/F3 EGFR-C797S/T790M/del19; format: cell-based; conditions: for IC50: Mus musculus, BaF3, 72 h, 72 h
Method: as §1

[6] = test system: Ba/F3 cells expressing EGFR-C797S/T790M/L858R; experiment: CellTiter-Glo cell viability assay, Ba/F3 EGFR-C797S/T790M/L858R; format: cell-based; conditions: Mus musculus, BaF3, 72 h
Method: as §1

[7] = test system: PC9 T790M cells (T790M/del19); experiment: CellTiter-Glo cell viability assay, PC9 T790M; format: cell-based; conditions: 72 h, read-out: IC50, PC9 T790M
Method: as §1

[8] = test system: Ba/F3 cells expressing EGFR-T790M/del19; experiment: CellTiter-Glo cell viability assay, Ba/F3 EGFR-T790M/del19; format: cell-based; conditions: Mus musculus, BaF3, 72 h
Method: as §1

[9] = test system: Ba/F3 cells of EGFR-T790M/del19; experiment: Drug sensitivity screening at 100 nM, Ba/F3 EGFR-T790M/del19; format: cell-based; conditions: for Relative cell viability (% of DMSO control): 100 nM; for viability at 0.1 µM: Mus musculus, BaF3, 72 h, read-out: Relative cell viability (ratio to DMSO control), del19/T790M
Method: (§2) After the incubation, cell viability was measured using CellTiter-Glo assay. The relative cell viability was calculated as a ratio of each value to that of the DMSO control.

[10] = test system: Ba/F3 cells of EGFR-C797S/T790M/del19; experiment: Drug sensitivity screening at 100 nM, Ba/F3 EGFR-C797S/T790M/del19; format: cell-based; conditions: Mus musculus; for viability at 0.1 µM: BaF3, 72 h, 100 nM inhibitor, 72 h, DMSO = 100, mean of three independent experiments (Fig. 1a data)
Method: as §2

[11] = test system: Ba/F3 cells of EGFR-del19; experiment: Drug sensitivity screening at 100 nM, Ba/F3 EGFR-del19; format: cell-based; conditions: for Relative cell viability (% of DMSO control) in del19 Ba/F3 cells: 100 nM; for viability at 0.1 µM: Mus musculus, BaF3, 72 h, read-out: Relative cell viability (ratio to DMSO control), del19
Method: as §2

[12] = test system: EGFR phosphorylation in PC9 triple-mutant cells; experiment: Western blotting of EGFR signalling, PC9 triple mutant; format: cell-based
Method: (§3) Tumour tissues or cells grown under the specified conditions were washed with cold PBS before addition of the SDS lysis buffer (100 mM Tris, 1% SDS, 10% glycerol). Lysates were transferred to microtubes, boiled for 5 min at 100 °C and then vortexed. Protein quantification was performed using the BCA Protein Assay Reagent (Pierce) according to the manufacturer's protocol. Western blot analyses were conducted after separation by SDS-PAGE and transferred to polyvinylidene difluoride membranes.

[13] = test system: phosphorylation of EGFR in Ba/F3 cells expressing EGFR-C797S/T790M/del19; experiment: Western blotting of EGFR signalling, Ba/F3 triple-del19; format: cell-based; conditions: 6 h
Method: as §3

[14] = test system: PC9-T790M (T790M/del19) xenograft; experiment: PC9-T790M xenograft; format: in vivo, Balb-c nu/nu mice; conditions: osimertinib 50 mg kg^−1, brigatinib 75 mg kg^−1
Method: (§4) Tumour growth was monitored twice weekly by bilateral caliper measurement, and tumour volume was calculated as 0.5 × length × width × width (mm^3). […] The mice whose implanted tumour size was ranked in the top 5% and bottom 5% were excluded from randomization to minimize the variation of tumour sizes. The mice were treated once daily by oral gavage for the indicated period. Relative tumour volume was calculated by dividing by the tumour volume on day 0. The body weights of the mice were measured twice weekly. Implanted tumours were resected from the mice on day 15 of drug treatment and were fixed with formalin. The mice were euthanized when the tumour size exceeded 700 mm^3 within several days. The investigators performing tumour measurements were not blinded to treatment groups. The sample size (minimum n=6 per treatment group) was selected to ensure satisfactory inter-animal reproducibility. The Mann–Whitney U test was used for the statistical analysis of the mice experiments.

[15] = test system: MGH121-res2 cells (C797S/T790M/del19); experiment: cells; format: cell-based; conditions: Homo sapiens, MGH121; Table 1e; 72 h; read-out: IC50, MGH121-res2
Method: as §1

[16] = test system: MGH121 parental cells (T790M/del19); experiment: cells; format: cell-based; conditions: Homo sapiens, MGH121; Table 1e; 72 h; read-out: IC50, MGH121-pt
Method: as §1

[17] = test system: PC9-triple mutant (C797S/T790M/del19) xenograft; conditions: osimertinib 50 mg kg^−1, brigatinib 75 mg kg^−1 once daily oral; cetuximab 1 mg per mouse three times a week; panitumumab 0.5 mg per mouse two times a week
Method: as §4

confirmed EGFR T790M = test system: confirmed EGFR T790M; design: method as in PMID 25923549; conditions: 127 patients with confirmed EGFR T790M, phase 1/2 trial; cited from earlier work
[18] = Supplementary Fig. 8e, read-out: IC50, Ba/F3 L858R
[19] = BaF3, Fig. 3c, 72 h, read-out: IC50, Ba/F3 Del19
[20] = Supplementary Fig. 8e, read-out: IC50, Ba/F3 T790M/L858R
[21] = Fig. 3c, read-out: IC50, Ba/F3 T790M/del19
[22] = 100 nM inhibitor, 72 h, DMSO = 100, mean of three independent experiments (Fig. 1a data)

Structure (SMILES) | IC50 [1, 18] [nM] | IC50 [2, 19] [nM] | IC50 [3, 20] [nM] | IC50 ([5]; Fig. 3b,c) [nM] | IC50 ([6]; Supplementary Fig. 8e) [nM] | IC50 [8, 21] [nM] | Relative cell viability (% of DMSO control) ([9]; 72 h, DMSO = 100, experiment 1) | Relative cell viability (% of DMSO control) ([9]; 72 h, DMSO = 100, experiment 2) | Relative cell viability (% of DMSO control) ([9]; 72 h, DMSO = 100, experiment 3) | viability at 0.1 µM [9, 22] [%] | viability at 0.1 µM [10] [%] | Relative cell viability (% of DMSO control) in del19 Ba/F3 cells ([11]; 72 h, DMSO = 100, experiment 1) | Relative cell viability (% of DMSO control) in del19 Ba/F3 cells ([11]; 72 h, DMSO = 100, experiment 2) | Relative cell viability (% of DMSO control) in del19 Ba/F3 cells ([11]; 72 h, DMSO = 100, experiment 3) | viability at 0.1 µM [11, 22] [%] | also measured
COc1cc(N2CCC(N(C)C)CC2)ccc1Nc1ncc(Cl)c(Nc2ccccc2P(C)(C)=O)n1 [AP26113-analog] | 92.1 | 36.9 | 36 | < 100 | 69.2 | 139 |  |  |  |  |  |  |  |  |  | IC50 ([4]; Table 1d, ALK–TKIs): 195 nM; IC50 (PC9 parent cells (del19); Table 1d, ALK–TKIs): 46.2 nM; change of IC50 by combination with cetuximab, triple-del19 Ba/F3 cells ([5]; with or without cetuximab 10 μg ml^−1, 72 h): approximately three-fold decrease of IC50; IC50 ([7]; Table 1d, ALK–TKIs): 89.3 nM
COc1cc(N2CCC(N3CCN(C)CC3)CC2)ccc1Nc1ncnc(Nc2ccccc2S(=O)(=O)C(C)C)n1 [ASP3026] | 948 | 450 | 1690 | 1510 | 2150 | 2160 | 93.2109 | 112.991 | 110.516 | 106 | 126 | 92.7195 | 100.941 | 101.38 | 98.3 | 
COc1cc(N2CCC(N)CC2)ccc1Nc1ncc(Cl)c(-c2c[nH]c3ccccc23)n1 [AZD3463] | 287 | 90 | 184 | 132 | 168 | 175 | 78.5876 | 91.5008 | 89.0461 | 86.4 | 89.3 | 35.8012 | 31.981 | 37.0414 | 34.9 | EGFR phosphorylation and downstream signalling, PC9 triple-mutant cells [12]: mild activity; IC50 ([4]; Table 1d, ALK–TKIs): 622 nM; IC50 (PC9 parent cells (del19); Table 1d, ALK–TKIs): 253 nM; IC50 ([7]; Table 1d, ALK–TKIs): 378 nM
Cc1cc(Nc2ncc(Cl)c(Nc3ccccc3S(=O)(=O)C(C)C)n2)c(OC(C)C)cc1C1CCNCC1 [Ceritinib, ceritinib] | 1160 | 524 | 685 | 780 |  |  |  |  |  |  | 135 |  |  |  | 96.5 | 
Cc1cc(C(=O)Nc2nc3cccc(Cl)c3n2[C@@H]2CCCCN(C(=O)/C=C/CN(C)C)C2)ccn1 [EGF-816] |  |  |  |  |  |  |  |  |  |  |  |  |  |  |  | IC50 ([1]; Table 1b, read-out: IC50, Ba/F3-EGFR-L858R): 7.7 nM; IC50 ([2]; BaF3, Table 1a, 72 h, read-out: IC50, Ba/F3-EGFR-Del19): 2.9 nM; IC50 ([3]; Table 1b, read-out: IC50, Ba/F3-EGFR-T790M/L858R): 15.5 nM; IC50 ([5]; Table 1a, read-out: IC50, Ba/F3-EGFR-C797S/T790M/del19): 1410 nM; IC50 ([6]; Table 1b, read-out: IC50, Ba/F3-EGFR-C797S/T790M/L858R): 2280 nM; IC50 ([8]; Table 1a, read-out: IC50, Ba/F3-EGFR-T790M/del19): 18.5 nM
C=CC(=O)Nc1cc(Nc2nccc(-c3cn(C)c4ccccc34)n2)c(OC)cc1N(C)CCN(C)C [Osimertinib, osimertinib] |  |  |  |  |  |  |  |  |  |  |  |  |  |  |  | viability at 0.1 µM [9]: 7.61%; EGFR phosphorylation and downstream signalling, PC9 triple-mutant cells [12]: No reduction of the signal pathway; phosphorylation of EGFR and downstream signalling, Ba/F3 triple-del19 [13]: lack of inhibition of EGFR phosphorylation; tumour growth, T790M/del19-expressing PC9 xenograft [14]: successfully suppressed the growth; IC50 [15]: 7160 nM; IC50 [16]: 2.58 nM; IC50 ([4]; Table 1c, EGFR–TKIs): 3460 nM; IC50 (PC9 parent cells (del19); Table 1c, EGFR–TKIs): 7.46 nM; tumour growth, PC9 triple-mutant xenograft [17]: without any superiority to control group; median progression-free survival (confirmed EGFR T790M): 9.6 months; response rate (confirmed EGFR T790M): 61%; IC50 ([7]; Table 1c, EGFR–TKIs): 11.3 nM; viability at 0.1 µM [11]: 1.58%
Cc1ccc(C(=O)Nc2ccc(CN3CCN(C)CC3)c(C(F)(F)F)c2)cc1C#Cc1cnc2cccnn12 [Ponatinib, ponatinib] |  |  |  |  |  |  |  |  |  |  |  |  |  |  |  | IC50 ([2]; BaF3, 72 h, read-out: IC50, Ba/F3 del19): 126 nM; viability at 0.1 µM [9]: 53.5%; inhibition at 0.1 µM ([10]; BaF3, read-out: growth inhibition against EGFR-triple-del19): ~50%; phosphorylation of EGFR and downstream signalling, Ba/F3 triple-del19 [13]: no inhibitory activity; viability at 0.1 µM [11]: 40.6%
CCCS(=O)(=O)Nc1ccc(F)c(C(=O)c2c[nH]c3ncc(-c4ccc(Cl)cc4)cc23)c1F [Vemurafenib, vemurafenib] |  |  |  |  |  |  | 92.0888 | 107.966 | 104.772 | 102 | 96.8 | 102.039 | 116.573 | 106.065 | 108 | 
COc1cc2nccc(Oc3ccc(NC(=O)C4(C(=O)Nc5ccc(F)cc5)CC4)cc3)c2cc1OC [XL184] |  |  |  |  |  |  | 91.4569 | 111.038 | 110.02 | 104 | 137 | 97.6803 | 120.752 | 111.655 | 110 | 
CC(=O)O[C@H]1C(=O)[C@@]2(C)[C@H]([C@H](OC(=O)c3ccccc3)[C@]3(O)C[C@H](OC(=O)[C@H](O)[C@@H](NC(=O)c4ccccc4)c4ccccc4)C(C)=C1C3(C)C)[C@]1(OC(C)=O)CO[C@@H]1C[C@@H]2O [paclitaxel] |  |  |  |  |  |  | 72.6289 | 87.6485 | 88.6746 | 83 | 95.1 | 51.8383 | 52.2569 | 51.6533 | 51.9 | 
